We go through one compound from patent US11117918B2, “Enzyme-directed immunostimulant and uses thereof” (Washington State University, priority 2016, dated 2021).

The test system of this assay is RAW-Blue cells. The assay can be described thus: Inverse RAW-Blue assay after conversion by α-Mannosidase or AT3B-1 cells. It is filed as cell-based. The protocol:
α-Mannosidase from Canavalia ensiformis (Jack bean) was used directly from the bottle to make a 1 U/mL stock solution in DPBS. Before administering the enzyme, the solution was filtered through a sterile 0.2 μm syringe filter to yield the working stock solution. 20 μL of the working stock solution was added to wells requiring exogenous enzyme to achieve a 0.1 U/mL α-Mannosidase concentration.
For inverse RAW-Blue assays, pro-immunostimulant (12) was first converted to Imiquimod by either exogenous α-Mannosidase (0.1 U/well) or via AT3B-1 cell metabolism prior to RAW-Blue exposure. To accomplish this, pro-immunostimulant (12) and controls were dosed at a concentration 10× the desired concentration to be administered to immune cells. For instance, to investigate the effects on RAW-Blue stimulation of a 10 μM dose of pro-immunostimulant […] the following steps would be taken: First, in an optically clear bottomed 96-well plate, wells were prepared to contain 180 μL of complete AT3B-1 cell media (without doxorubicin) and either α-Mannosidase or the desired AT3B-1 cell density (cells were given a minimum of 60 mins to adhere). Second, a 100 μM dose of (12) in DPBS was administered to the wells and total well volumes were adjusted to 200 μL with complete cell media (without doxorubicin). Cells were incubated (37° C., 5% CO2) for 24-72 h. […]

Regarding `CC(C)Cn1cnc2c(NC(=O)OCc3ccc(O[C@H]4O[C@H](CO)[C@@H](O)[C@H](O)[C@@H]4O)c([N+](=O)[O-])c3)nc3ccccc3c21` [compound 12], the “immunogenicity (RAW-Blue activation)” value (10 μM, exogenous α-Mannosidase and AT3B-1 driven conversion to Imiquimod) is on record as “confers immunogenicity”. Further, the RAW-Blue activity result (without a conversion driver) is “abrogated activity”.
